Assay results: ChEMBL document CHEMBL1201862, “PubChem BioAssay data set” (2004)
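How tested: cells in 96-well plates exposed to compound for 48 hours at five concentrations. At the GI50, growth is halved.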 Active and inactive are the calls of the source. No stated cut-off is given here; in the data, active = GI50 up to about 1.1 µM and inactive = higher.

Experiments:
Test in all cases: NCI anticancer screen, dose series, 48 h
HCT-116 = system: HCT-116
TK-10 = system: TK-10
NCI-H23 = system: NCI-H23
NCI-H460 = system: NCI-H460
IGROV-1 = system: IGROV-1
SK-MEL-2 = system: SK-MEL-2
OVCAR-5 = system: OVCAR-5
A498 = system: A498
SNB-19 = system: SNB-19
U-251 = system: U-251
HOP-92 = system: HOP-92
SF-268 = system: SF-268
OVCAR-4 = system: OVCAR-4
KM12 = system: KM12
SK-MEL-28 = system: SK-MEL-28
ACHN = system: ACHN
RXF 393 = system: RXF 393
HCC 2998 = system: HCC 2998
HCT-15 = system: HCT-15
UACC-62 = system: UACC-62

Row | SMILES | GI50 (HCT-116) | GI50 (TK-10) | GI50 (NCI-H23) | GI50 (NCI-H460) | GI50 (IGROV-1) | GI50 (SK-MEL-2) | GI50 (OVCAR-5) | GI50 (A498) | GI50 (SNB-19) | GI50 (U-251) | GI50 (HOP-92) | GI50 (SF-268) | GI50 (OVCAR-4) | GI50 (KM12) | GI50 (SK-MEL-28) | GI50 (ACHN) | GI50 (RXF 393) | GI50 (HCC 2998) | GI50 (HCT-15) [µM] | GI50 (UACC-62)
1 | CC1(C)OC[C@H](C(=N)OCc2ccccc2)O1 | > 100 µM (inactive) | > 100 µM (inactive) | > 100 µM (inactive) | > 100 µM (inactive) | > 100 µM (inactive) | > 100 µM (inactive) | > 100 µM (inactive) | > 100 µM (inactive) | > 100 µM (inactive) | > 100 µM (inactive) | > 100 µM (inactive) | > 100 µM (inactive) | > 100 µM (inactive) | > 100 µM (inactive) | > 100 µM (inactive) | > 100 µM (inactive) | > 100 µM (inactive) | > 100 µM (inactive) | > 100 | > 100 µM (inactive)
2 | O=S1(=O)OCCOS(=O)(=O)C1Cc1cccc2ccccc12 | 20.3 µM (inactive) | 30.7 µM (inactive) | 29.9 µM (inactive) | 17 µM (inactive) | 13.9 µM (inactive) | 51.3 µM (inactive) | 24.3 µM (inactive) | 14.1 µM (inactive) | 25 µM (inactive) | 18.2 µM (inactive) | 17.9 µM (inactive) | 14.5 µM (inactive) | 19.8 µM (inactive) |  | 2.69 µM (inactive) | 31.5 µM (inactive) | 3.37 µM (inactive) | 20.1 µM (inactive) | 26.5 | 22.2 µM (inactive)
3 | CC1=C(SCCO)C(=O)c2ccccc2C1=O | 4.76 µM (inactive) | 16.8 µM (inactive) | 12.6 µM (inactive) | 13.2 µM (inactive) | 14.2 µM (inactive) | 11.7 µM (inactive) | 17.9 µM (inactive) | 16.9 µM (inactive) | 25.4 µM (inactive) | 13.3 µM (inactive) | 1.7 µM (inactive) | 15.5 µM (inactive) | 3.31 µM (inactive) | 13.6 µM (inactive) | 11 µM (inactive) | 3.52 µM (inactive) | 13.4 µM (inactive) | 16.6 µM (inactive) | 7.35 | 14.9 µM (inactive)
4 | Nc1n[nH]c2c1Cc1c(n(Cc3ccc(Cl)cc3)c3ccccc13)C(=O)N2 | 8.15 µM (inactive) | 15 µM (inactive) | 10.6 µM (inactive) | 14 µM (inactive) | 12.5 µM (inactive) | 15.9 µM (inactive) | 14.2 µM (inactive) | 13.7 µM (inactive) |  | > 10 µM (inactive) | 12.9 µM (inactive) | 17.1 µM (inactive) | 13.8 µM (inactive) |  | 38.1 µM (inactive) |  | 5.69 µM (inactive) | 10.4 µM (inactive) | 4.12 | 20.3 µM (inactive)
5 | O=C1C=CC=C/C1=C1\N=C(c2ccccc2OCC(=O)c2ccccc2)SS1 | > 100 µM (inactive) | > 100 µM (inactive) | > 100 µM (inactive) | > 100 µM (inactive) | > 100 µM (inactive) | > 100 µM (inactive) | > 100 µM (inactive) | > 100 µM (inactive) | > 100 µM (inactive) | 44.8 µM (inactive) | > 100 µM (inactive) | 58.1 µM (inactive) | > 100 µM (inactive) | > 100 µM (inactive) | > 100 µM (inactive) | > 100 µM (inactive) | > 100 µM (inactive) | > 100 µM (inactive) | > 100 | > 100 µM (inactive)
6 | CCOC(=O)CCc1c(C)c2c(O)cc(O)cc2oc1=O | 15.8 µM (inactive) |  | > 100 µM (inactive) | > 100 µM (inactive) | > 100 µM (inactive) | > 76.4 µM (inactive) | > 100 µM (inactive) | > 100 µM (inactive) | > 84.1 µM (inactive) | 53.8 µM (inactive) | > 100 µM (inactive) | > 100 µM (inactive) | > 100 µM (inactive) | > 100 µM (inactive) | > 100 µM (inactive) |  | > 78.9 µM (inactive) | > 100 µM (inactive) | 99.1 | > 100 µM (inactive)
7 | O=c1oc2ccccc2n1P(=O)(Oc1ccc(Cl)cc1)n1c(=O)oc2ccccc21 | > 100 µM (inactive) | > 100 µM (inactive) | > 100 µM (inactive) |  | > 100 µM (inactive) | 55 µM (inactive) | > 100 µM (inactive) | > 100 µM (inactive) | > 100 µM (inactive) | > 100 µM (inactive) | > 100 µM (inactive) | > 100 µM (inactive) | > 100 µM (inactive) | 85.5 µM (inactive) | > 100 µM (inactive) | > 100 µM (inactive) | > 100 µM (inactive) | 46.6 µM (inactive) |  | 61 µM (inactive)
8 | C=C1CC[C@@H](Br)C(C)(C)[C@]12CCC(C)(O)C(Cl)C2 (stereo partly specified) | 18.1 µM (inactive) | 29.2 µM (inactive) | 26.1 µM (inactive) | 17 µM (inactive) | 23.1 µM (inactive) | 18.5 µM (inactive) | 19.5 µM (inactive) | 28.9 µM (inactive) | 19.8 µM (inactive) | 16.2 µM (inactive) | 23 µM (inactive) | 17.4 µM (inactive) |  | 18.2 µM (inactive) | 20 µM (inactive) | 20.9 µM (inactive) | 17.5 µM (inactive) | 23.3 µM (inactive) | 16 | 18.5 µM (inactive)
9 | N/C(=N\O)N/N=C/c1ncccc1O | 11.8 µM (inactive) |  | > 49 µM (inactive) | 5.96 µM (inactive) | 16.2 µM (inactive) | 31.3 µM (inactive) | 31.5 µM (inactive) | 35.7 µM (inactive) | 33.8 µM (inactive) | 15.5 µM (inactive) | 61.7 µM (inactive) | 22.7 µM (inactive) | 18.1 µM (inactive) | 5.81 µM (inactive) | 45.9 µM (inactive) |  | 38.2 µM (inactive) | 12.1 µM (inactive) | 4.66 | 10.3 µM (inactive)
10 | N#Cc1c(N)c2c(c(-c3ccccc3)c1-c1ccccc1)C(=O)N(NC(=S)Nc1ccccc1)C2=O | 56.1 µM (inactive) | 84.5 µM (inactive) |  | 61.4 µM (inactive) | 43 µM (inactive) | > 100 µM (inactive) | 35.2 µM (inactive) | 43.3 µM (inactive) | > 100 µM (inactive) | > 100 µM (inactive) | 34.2 µM (inactive) | > 100 µM (inactive) | 51.1 µM (inactive) | 75.7 µM (inactive) | 47.2 µM (inactive) | 94.2 µM (inactive) | 16.9 µM (inactive) | > 100 µM (inactive) | 71.8 | 73.8 µM (inactive)
11 | Nc1c(S(=O)(=O)O)cc(S(=O)(=O)O)c2ccc(/N=N/c3ccc(/C=C/c4ccc(/N=N/c5ccc6c(S(=O)(=O)O)cc(S(=O)(=O)O)c(N)c6c5O)cc4S(=O)(=O)O)c(S(=O)(=O)O)c3)c(O)c12 | > 100 µM (inactive) |  | > 100 µM (inactive) | > 92.7 µM (inactive) | 90.2 µM (inactive) | > 100 µM (inactive) | 59.4 µM (inactive) | > 100 µM (inactive) | > 100 µM (inactive) | > 100 µM (inactive) | 35.6 µM (inactive) | > 100 µM (inactive) | > 57.9 µM (inactive) | > 100 µM (inactive) | > 100 µM (inactive) |  | > 85.1 µM (inactive) | > 100 µM (inactive) | > 73.5 | > 100 µM (inactive)
